Measurements taken from publication PMC7018657, “Molecular Determinants of Substrate Selectivity of a Pneumococcal Rgg-Regulated Peptidase-Containing ABC Transporter” (mBio, 2020).
Where no end group is shown, it is not given here.

Tests used:
[1] = tested on: Sp9-BS68 rtgS1 promoter (PrtgS1-luc; RtgR-dependent); assay: RtgS dose-response assay, PrtgS1-luc reporter, Sp9-BS68 ΔrtgS1; type: cell-based, Streptococcus pneumoniae Sp9-BS68; conditions: for induction of rtgS1 promoter: Sp9-BS68 PrtgS1-luc, CDM+ and THY; for Maximal response / EC50: Sp9-BS68 ΔrtgS1, mean ± SE from Hill fit, 3 independent experiments, max PrtgS1 activity within 60 min; for EC50: synthetic peptide added at OD620 0.02, luminescence, 37°C
Procedure: (§1) FIG 2 The Rgg/SHP-like RtgR/RtgS system regulates rtg. (A) rtgR and rtgS1 are required for rtg activation in Sp9-BS68. Sp9-BS68 PrtgS1-luc reporters were grown in CDM+ or THY and monitored for rtg activation (dark, left y axis) and cell density (light, right y axis). Plots show medians (lines) and 25% to 75% quantiles (shading) from 12 wells pooled from 3 independent experiments. (B) Translated rtgS gene products from Sp9-BS68 and D39. The type-defining residues are highlighted in red. (C) rtgS1 but not rtgS2 is required for rtg activation in D39. D39 PrtgS1-luc reporters were grown in CDM+ and monitored for rtg activation (dark, left y axis) and cell density (light, right y axis). Plots show medians (lines) and 25% to 75% quantiles (shading) from 30 wells pooled from 3 independent experiments. C-terminal fragments of RtgSA induce rtg in an RtgR-dependent manner. Sp9-BS68 PrtgS1-luc reporters were grown in CDM+ and THY (D) or CDM+ only (E) to an OD620 of 0.02 and treated with synthetic RtgSA fragments. Response was defined as the maximum observed PrtgS1 activity within 60 min of treatment. Data in panel D were fitted to the four-parameter Hill model (curves). Plotted data points represent means ± SEs from 3 independent experiments. […] A D39 ΔrtgS1 ΔrtgS2 PrtgS1-luc reporter was grown in CDM+ to an OD620 of 0.02 and treated with synthetic RtgS fragments. Response was defined as the maximum observed PrtgS1 activity within 60 min of treatment. Data were fitted to the four-parameter Hill model (curves). Plotted data points represent means ± SEs from 3 independent experiments. […] A D39 ΔrtgS1 ΔrtgS2 PrtgS1-luc reporter was grown in CDM+ to an OD620 of 0.02 and treated simultaneously with 2 nM RtgSA-C10 and various concentrations of RtgSB-C10. Response was defined as the maximum observed PrtgS1 activity within 120 min of treatment. Plotted data points represent means ± SEs from 3 independent experiments. **, P < 0.01; ***, P < 0.001 versus 0 nM RtgSB-C10 by ANOVA with Dunnett’s correction for multiple comparisons.
(§2) All strains were derived from Sp9-BS68 ([36]), D39, or the R6 strain P654 (referred to as PSD100 in reference) (see Table S1 and methods in Text S1 in the supplemental material for details). […] Pneumococcus was grown in either filter-sterilized THY (Todd Hewitt broth plus 0.5% yeast extract) or CDM+ (see methods in Text S1) ([38]) at 37°C. All media contained 5 μg/ml catalase. All CDM+ was supplemented with 0.5% (vol/vol) THY. Except where noted otherwise, pneumococcal cultures used for experiments were inoculated to an OD620 of 0.0015 from starter cultures grown in THY (pH 7.4) to an OD620 of 0.275 and frozen at −80°C in 13% glycerol. Starter cultures were pelleted at 6,000 × g for 5 min at room temperature and resuspended in the appropriate growth medium for the experiment before being used for inoculation. Antibiotics were used at the following concentrations: chloramphenicol, 2 μg/ml; gentamicin, 200 μg/ml; kanamycin, 500 μg/ml; spectinomycin, 200 μg/ml; streptomycin, 100 μg/ml.
Cells expressing PrtgS1-luc reporters were grown in THY or CDM+ containing 330 μM firefly luciferin. At an OD620 of 0.02, cultures were aliquoted into a white, clear-bottom 96-well plate (655098; Greiner Bio-One), 100 μl per well. Each well of the plate was prefilled with 100 μl sterile medium containing 0.5% (vol/vol) dimethyl sulfoxide (DMSO), 330 μM firefly luciferin, and appropriate concentrations of synthetic RtgS peptide (Genscript). The plate was then incubated in a Synergy HTX plate reader set to read absorbance at 620 nm and luminescence every 5 min. For D39 strains only, the plate was shaken before readings were taken. PrtgS1 activity was calculated, and the response was defined as the maximum observed PrtgS1 activity within 60 min (Sp9-BS68) or 120 min (D39) of treatment. When applicable, curves were fit to a Hill model using the nls() function in R 3.5.1.

[2] = biological target: T1, D39 PrtgS1-luc (rtg locus) (Streptococcus pneumoniae, UniProt A0ACD7PPC8); assay: RtgS dose-response assay, PrtgS1-luc reporter, D39 ΔrtgS1 ΔrtgS2; type: cell-based; conditions: CDM+; for Maximal response: mean ± SE from Hill fit, 3 independent experiments, max PrtgS1 activity within 60 min / 120 min (methods)
T1 sequence (A0ACD7PPC8 1-287): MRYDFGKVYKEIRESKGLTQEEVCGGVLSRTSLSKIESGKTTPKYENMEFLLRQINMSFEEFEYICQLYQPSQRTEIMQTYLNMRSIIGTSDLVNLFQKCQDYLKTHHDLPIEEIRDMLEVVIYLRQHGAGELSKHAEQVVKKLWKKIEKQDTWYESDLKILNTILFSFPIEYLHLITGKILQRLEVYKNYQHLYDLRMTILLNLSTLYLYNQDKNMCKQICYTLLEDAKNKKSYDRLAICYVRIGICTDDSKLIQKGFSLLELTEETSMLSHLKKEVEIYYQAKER
Procedure: as §1, §2
(§3) Cells expressing PrtgS1-luc reporters were grown in THY or CDM+ containing 330 μM firefly luciferin. […] The plate was then incubated in a Synergy HTX plate reader set to read absorbance at 620 nm and luminescence every 5 min. For D39 strains only, the plate was shaken before readings were taken. PrtgS1 activity was calculated, and the response was defined as the maximum observed PrtgS1 activity within 60 min (Sp9-BS68) or 120 min (D39) of treatment. […]

[3] = biological target: T1, D39 PrtgS1-luc (rtg locus); assay: Competitive dose-response assay of RtgSB-C10 against RtgSA-C10, D39 ΔrtgS1 ΔrtgS2 PrtgS1-luc; type: cell-based; conditions: CDM+
Procedure: FIG 2 The Rgg/SHP-like RtgR/RtgS system regulates rtg. (A) rtgR and rtgS1 are required for rtg activation in Sp9-BS68. Sp9-BS68 PrtgS1-luc reporters were grown in CDM+ or THY and monitored for rtg activation (dark, left y axis) and cell density (light, right y axis). Plots show medians (lines) and 25% to 75% quantiles (shading) from 12 wells pooled from 3 independent experiments. (B) Translated rtgS gene products from Sp9-BS68 and D39. The type-defining residues are highlighted in red. (C) rtgS1 but not rtgS2 is required for rtg activation in D39. D39 PrtgS1-luc reporters were grown in CDM+ and monitored for rtg activation (dark, left y axis) and cell density (light, right y axis). Plots show medians (lines) and 25% to 75% quantiles (shading) from 30 wells pooled from 3 independent experiments. C-terminal fragments of RtgSA induce rtg in an RtgR-dependent manner. […]
as §3

[4] = tested on: Sp9-BS68 PrtgS1-luc in ΔpptAB and ΔamiCD mutants; assay: Response of ΔpptAB and ΔamiCD PrtgS1-luc reporters to exogenous RtgS; type: cell-based, Streptococcus pneumoniae Sp9-BS68; conditions: CDM+, RtgSA-C10 at OD620 0.02, max within 60 min, 3 independent experiments
Procedure: Supplementary file : FIG S1 Ami and PptAB are required for RtgR/S signaling. (A) Both Ami and PptAB are required for natural rtg autoinduction. Sp9-BS68 PrtgS1-luc reporters were grown in CDM+ and monitored for rtg activation (dark, left y axis) and cell density (light, right y axis). Plots show medians (lines) and 25% to 75% quantiles (shading) from 30 wells per strain pooled from 3 independent experiments. […] Sp9-BS68 PrtgS1-luc reporters were grown in CDM+ to an OD620 of 0.02 and treated with RtgSA-C10. Response was defined as the maximum observed PrtgS1 activity within 60 min of treatment. Plotted data points represent means ± SEs from 3 independent experiments. Download FIG S1, PDF file, 0.6 MB.
as §3, with “luciferin. At an OD620 of 0.02, cultures were aliquoted into a white, clear-bottom 96-well plate (655098; Greiner Bio-One), 100 μl per well.” for “luciferin.”

| Sequence | induction of rtgS1 promoter [1] | Maximal response ([1]; CDM+) | EC50 ([1]; CDM+) [nM] | Maximal response ([1]; THY) | EC50 ([1]; THY) [nM] | rtg induction / type of agonism [2] | Maximal response [2] | EC50 value larger than that of RtgSA-C10 (ratio) ([2]; versus RtgSA-C10) [fold] | antagonism of RtgSA-C10 ([3]; high concentrations with 2 nM RtgSA-C10, 3 independent experiments) | concentration antagonizing RtgSA-C10 ([3]; simultaneous with 2 nM RtgSA-C10, max PrtgS1 activity within 120 min, 3 independent experiments) [nM] | rescue of rtg activation by exogenous RtgS [4] |
| --- | --- | --- | --- | --- | --- | --- | --- | --- | --- | --- | --- |
| IFPWGWPI [RtgSA-C8] | induced expression from the Sp9-BS68 rtgS1 promoter in both CDM+ and THY | 212.2 ± 9.4 10^3 RLU·min^−1·OD620^−1 | 2.53 ± 0.25 | 229.7 ± 8.6 10^3 RLU·min^−1·OD620^−1 | 184 ± 15 | – | – | – | – | – | – |
| AIIFPWGWSI [RtgSB-C10] | – | – | – | – | – | partial agonist | 21.2 ± 1.5 10^3 RLU·min^−1·OD620^−1 | 55 | antagonize RtgSA-C10 | ≥ 256 | – |
| SLAIIFPWGWPI [RtgSA-C12] | induced expression from the Sp9-BS68 rtgS1 promoter in both CDM+ and THY | 213.9 ± 8.0 10^3 RLU·min^−1·OD620^−1 | 3.51 ± 0.28 | 210.1 ± 13.1 10^3 RLU·min^−1·OD620^−1 | 315 ± 42 | – | – | – | – | – | – |
| AIIFPWGWPI [RtgSA-C10] | induced expression from the Sp9-BS68 rtgS1 promoter in both CDM+ and THY | 205.7 ± 9.1 10^3 RLU·min^−1·OD620^−1 | 1.63 ± 0.19 | 232.4 ± 14.3 10^3 RLU·min^−1·OD620^−1 | 47.4 ± 6.9 | induces rtg similarly to Sp9-BS68 | 75.1 ± 8.1 10^3 RLU·min^−1·OD620^−1 | – | – | – | rescues rtg activation defect in the ΔpptAB mutant but not the ΔamiCD mutant |
